Data on two compounds can be found in publication PMC11375702, “Early Preclinical Studies of Ergosterol Peroxide and Biological Evaluation of Its Derivatives” (ACS Omega, 2024).

A value given as a limit tells only on which side of the number the result lay.

As usually defined, the EC50 is the concentration giving half of the maximal effect. A word on the half-life: it is the time in which the quantity being followed falls by half. The IC50 is the point on the concentration scale where inhibition reaches its midpoint.

In one data set the test system is BJ. The data set can be described thus: CellTiter-Glo 72 h cytotoxicity assay, BJ normal fibroblasts. The following applies: Homo sapiens, CTG assay, noncancerous fibroblasts. It is filed as cell-based. On the procedure: (§1) The following stable human cell lines were utilized for this study: SUM149 and MDA-MB-231 (breast cancer models) and BJ (human normal fibroblast, foreskin). Cells were purchased from BioIVT or the American Type Culture Collection (ATCC). Cells were cultured in F-12-Nutrient Mixture (SUM149), DMEM (MDA-MB-231), or EMEM (BJ) medium supplemented with 10% fetal bovine serum (Sigma-Aldrich, St. Louis, MO) and 2 mmol of L-glutamine, at 37 °C in a humidified 5% CO2 atmosphere (no antibiotics) as indicated by the manufacturer. Cell cultures were grown to 80–90% confluence before use, except where otherwise specified. Our cell lines are authenticated every 3 months using the CellCheck service (Idexx BioResearch, Westbrook, ME). Cells were tested for mycoplasma prior to use (MycoAlert detection Kit Lonza LT07–318) and discarded if they tested positive. A cell proliferation assay was performed using the CellTiter-Glo (Promega Corp., Madison, WI) luminescent cell viability assay kit. Cells were detached with trypsin, counted, and seeded in white polystyrene flat-bottom sterile 96-well tissue culture-treated plates (catalog no. 3917, Corning, Glendale, Arizona) and incubated overnight at 37 °C. MDA-MB231, SUM149, and BJ cells were seeded into 96-well plates at concentrations experimentally determined (0.4 × 10^4, 0.25 × 10^4, and 0.3 × 10^4 cells per well, respectively) to ensure logarithmic growth during the duration of the experiment and to prevent adverse effects on cell growth by DMSO exposure. The plates were incubated for 12 h before treatment. Stock solutions of test compounds (10 mM in DMSO) in nine 3-fold serial dilutions were dispensed. The final concentration of DMSO was 0.3% (v/v) in each well. The positive control used was staurosporine (10 μM) as the kill-all control, and the negative control used is DMSO as we have published. Staurosporine is a potent alkaloid inducer of various cell death modalities but primarily apoptosis, making it a reliable positive control for viability assays. The plates were incubated for 72 h and then quenched with CTG at 50 μL per well at RT. Plates were then incubated at RT for 20 min and centrifuged at 1000 rpm for 1 min. Luminescence was read on a CLARIOstar Plus plate reader (BMG LabTech, Ortenberg, Germany).
Three or four technical replicates were conducted for each experimental condition, and a minimum of three independent experiments were conducted for each assay. In vitro ADME values were expressed as mean ± standard deviation (SD) of at least three independent experiments. One-way analysis of variance (ANOVA) was adopted for comparisons among groups using the GraphPad Prism 10.2.3 (GraphPad Software, San Diego, CA). A difference of P < 0.05 was considered as statistically significant. Data are expressed as mean ± SEM. For CTG, the mean luminescence of each experimental treatment group was normalized as a percentage of the mean intensity of untreated controls (DMSO as vehicle). EC50 values were calculated from dose–response curve fitting via nonlinear regression using GraphPad Prism 10.2.3 (GraphPad Software, San Diego, CA). A therapeutic index (TI) between normal and tumor cell lines can be determined (EC50 non-neoplastic cell line BJ)/(EC50 cancer cell line). In vivo studies were analyzed using mixed-effects regression models to compare the changes in tumor volume over time by treatment group. Tumor volume reduction was compared using ANOVA with repeated measures, and all data was considered significant when P < 0.05.
(ATP-based viability assays read luminescence as a measure of living cells.)

The nature of data set [1]: Simulated gastric fluid (SGF) stability. It counts as in vitro ADME. The note with it: simulated gi fluid; for half-life: SGF stability t1/2. The method, then:
The simulated gastric fluid (SGF) assay is an important element in determining the overall drug-like potential of compounds.[29],[30] Anecdotal studies of oral consumption of extracts by humans indicate positive outcomes of digestion of mixtures of EP and its related natural products found in G. lucidum.[2] […] Chlorambucil was used as positive control as previously described.[32],[33] […] Caco-2 permeability studies were conducted to validate and to provide information on EP’s ability to cross the intestinal barrier and its potential for interactions with drug transporters.[36]−[39] The rate of transport in both directions (A-B and B-A) across the cell monolayer enables an efflux ratio (B-A/A-B) to be determined, enabling us to determine if a compound undergoes active efflux (efflux ratio ≥2).

Data set [2] can be described thus: Parallel Artificial Membrane Permeability Assay (PAMPA). It counts as in vitro ADME. The method, then: This assay is to analyze the permeability of various drugs/compounds on a homogeneous artificial lipid membrane using the normal Double-Sink PAMPA protocol. Then, 6 μL of 10 mM compound solution in DMSO was applied to each well in a stock plate. Compounds were diluted 200-fold in PBS buffer (pH = 7.4). 180 μL of diluted solution was added to a donor plate (pION INC, Woburn, MA). A filter plate (acceptor plate; pION INC, Woburn, MA) containing 200 μL of acceptor sink buffer (ASB, pH = 7.4; pION INC, Woburn, MA) was then placed over the donor plate. The plates were incubated at room temperature for 0.5 h with magnetic stirring in individual wells to allow the compounds to cross the membrane. Fractions were collected from both the donor plate and the acceptor plate, and the concentrations were assessed by UV spectrometry (230–500 nm). Sample preparation, sample analysis, and data processing are fully automated using a Biomek FX ADME-TOX workstation and the UV-based PAMPA Evolution-96 Command Software. All compounds were tested in triplicates.

The test system of another data set is SUM149. As to the kind of experiment: CellTiter-Glo 72 h cytotoxicity assay, SUM149. It counts as cell-based. The note with it: Homo sapiens; for EC50: SUM149, CTG assay, 72 h; for IC50: calculated from SUM149 EC50.
Description: First, topological polar surface area (tPSA), a widely used molecular descriptor that provides insight into compound absorption and membrane penetration, was theoretically calculated for these compounds along with the estimated c log P (partition coefficient) or log P to further assess their global therapeutic potential.[18],[19] Lipophilicity, a measurable and predictable physical property, can provide practical guidance in designing compounds with improved molecular properties.[20] The tPSA sums the contribution of the surface area of polar atoms, enabling us to determine whether the compounds are more likely to be cell membrane permeable. The aqueous solubility was measured by ultraviolet/visible (UV/vis) spectroscopy.[21] […] EP shares an improved cLogP, but still relatively high from a desirable drug candidate (2.5–3.5). […] Compound 4 has a higher c log P, while compounds 5–10 have lower c log P values. To determine LiPE (lipophilicity efficiency), the following formula was used: LiPE = pIC50 – log P, according to established methods.[22],[23] […] The obtained EC50 values for the newly generated EP derivatives were within a similar range for other derivatives previously described against TNBC models.[17]
as §1
Three or four technical replicates were conducted for each experimental condition, and a minimum of three independent experiments were conducted for each assay. In vitro ADME values were expressed as mean ± standard deviation (SD) of at least three independent experiments. One-way analysis of variance (ANOVA) was adopted for comparisons among groups using the GraphPad Prism 10.2.3 (GraphPad Software, San Diego, CA). A difference of P < 0.05 was considered as statistically significant. […]

As to `CC(C)[C@@H](C)/C=C/[C@@H](C)[C@H]1CC[C@@H]2[C@]1(C)CC[C@H]1[C@]23C=C[C@]2(C[C@@H](O)CC[C@]12C)OO3` [Compound 2, Ergosterol peroxide], the EC50 with BJ is more than 50 µM. In data set [1], this compound displayed a half-life of more than 48 h. In addition, the Papp at 0.5 h, 50 µM in data set [2] (PAMPA, pH 7.4, pH 7.40, read-out: PAMPA Avg Pe) amounted to 65.3 ×10⁻⁶ cm/s. In addition, in data set [2] (pH 7.40), the “PAMPA %R” value was 81.90% and the “PAMPA Avg Pe” value is on record as 65.31 10–6 cm/s. Also, in the data set on SUM149, the EC50 was found to be 6 µM and the IC50 was 6.03 µM.
`CC(C)[C@@H](C)/C=C/[C@@H](C)[C@H]1CC[C@@H]2[C@]1(C)CC[C@H]1[C@]23C=C[C@]2(CC(=O)CC[C@]12C)OO3` [Compound 3] had an EC50 with BJ of more than 50 µM. In data set [1], the “SGF stability t1/2” value was 8.92 h and the half-life is approximately 9 h. Further, in data set [2] (PAMPA, 0.5 h, 50 µM, pH 7.4), the “PAMPA Avg Pe” value is on record as 00 10–6 cm/s. Further, in the data set with SUM149, the 50% effective concentration (EC50) stood at 5 µM and the 50% inhibitory concentration (IC50) was 5.01 µM.
